Laboratory results: ChEMBL document CHEMBL1144015, “Antiproliferative effects on human tumor cells and rat aortic smooth muscular cells of 2,3-heteroarylmaleimides and heterofused imides” (Bioorg Med Chem, 2008)
Calls of active or inactive are those of the source. No cut-off for these calls is given here.

Key:
[1] = Effect on cell proliferation of Sprague-Dawley rat smooth muscle cells after 72 hrs
NCI-H460 = test: Antiproliferative activity against human NCI-H460 cells after 72 hrs; format: functional, cell-based; details: NCI-H460, 72 h
[2] = Partition coefficient, log P of the compound; format: physicochemical; details: octanol/water
[3] = Binding affinity to supercoiled pRYG DNA by DNA intercalating assay

CCN(CC)CCN1C(=O)C(c2c[nH]c3ccccc23)=C(c2cccn2C)C1=O
IC50 [1]: 3.6 µM | IC50 (NCI-H460): 8.5 µM | logP [2]: 2.9

CCN(CC)CCN1C(=O)C(c2ccco2)=C(c2cccn2C)C1=O
IC50 (NCI-H460): > 30 µM | logP [2]: 0.9

CCN(CC)CCN1C(=O)c2c(c3sccc3c3ccsc23)C1=O
Activity [3]: inactive | IC50 [1]: 0.53 µM | IC50 (NCI-H460): 4.8 µM | logP [2]: 3.8

CCN(CC)CCN1C(=O)c2c(c3c(ccn3C)c3ccsc23)C1=O
Activity [3]: inactive | IC50 [1]: 0.08 µM | IC50 (NCI-H460): 0.84 µM | logP [2]: 2.5

CCN(CC)CCN1C(=O)c2c(c3ccccc3c3ccccc23)C1=O
IC50 [1]: 0.68 µM | IC50 (NCI-H460): 0.9 µM | logP [2]: 4.1

CCN(CC)CCN1C(=O)C(c2cccs2)=C(c2cccs2)C1=O
Activity [3]: inactive | IC50 [1]: 3.9 µM | IC50 (NCI-H460): 8.9 µM | logP [2]: 2.9

CCN(CC)CCN1C(=O)c2c(c3c(ccn3C)c3ccoc23)C1=O
IC50 [1]: 5.3 µM | IC50 (NCI-H460): 8.6 µM | logP [2]: 1.7

O=C1c2cccc3cccc(c23)C(=O)N1CCNCCCNCCN1C(=O)c2cccc3cccc(c23)C1=O
Activity [3]: Active

CCN(CC)CCN1C(=O)C(c2ccco2)=C(c2cccs2)C1=O
IC50 [1]: 2.1 µM | IC50 (NCI-H460): 8.7 µM | logP [2]: 2.1

CCN(CC)CCN1C(=O)c2c(c3sccc3c3ccccc23)C1=O
IC50 [1]: 13.9 µM | IC50 (NCI-H460): 7.1 µM | logP [2]: 3.9

CCN(CC)CCN1C(=O)C(c2cccs2)=C(c2cccn2C)C1=O
Activity [3]: inactive | IC50 [1]: 12.1 µM | IC50 (NCI-H460): 9 µM | logP [2]: 1.7

CCN(CC)CCN1C(=O)C(c2cccs2)=C(c2c[nH]c3ccccc23)C1=O
IC50 [1]: 1 µM | IC50 (NCI-H460): 1.9 µM | logP [2]: 3.8

CCN(CC)CCN1C(=O)c2c(c3sccc3c3ccoc23)C1=O
IC50 [1]: > 30 µM | IC50 (NCI-H460): > 30 µM | logP [2]: 3

CCN(CC)CCN1C(=O)C(c2cc3ccccc3[nH]2)=C(c2cccs2)C1=O
IC50 [1]: 5.3 µM | IC50 (NCI-H460): 8.4 µM | logP [2]: 3.8

CN(C)CCN1C(=O)c2cccc3cc(N)cc(c23)C1=O [AMONAFIDE]
IC50 [1]: 0.48 µM | IC50 (NCI-H460): 7.8 µM | logP [2]: 1.6
